Laboratory results taken from patent US11083709B2, “Compounds, compositions, and methods of increasing CFTR activity” (Proteostasis Therapeutics, Inc., priority 2015, dated 2021).

What was measured:
ΔF508-CFTR [1] = target: T1, ΔF508-CFTR (Homo sapiens, UniProt P13569, DEL508-508); assay: hBE equivalent current (Ieq) assay, primary lung epithelial cells homozygous for ΔF508; type: cell-based; conditions: compound at 10 uM and VX-809 at 1 uM, relative to VX-809 (1 uM); 24 h treatment
T1 construct: primary lung epithelial cells (hBEs) homozygous for the Cystic Fibrosis-causing ΔF508 mutation; endogenous in cells; host or cells: primary lung epithelial cells (hBEs) homozygous for ΔF508
Experimental: Primary lung epithelial cells homozygous for the Cystic Fibrosis-causing ΔF508 mutation were differentiated for a minimum of 4 weeks in an air-liquid interface on Costar 24 well HTS filter plates prior to the equivalent current (Ieq) measurements. Cells were apically mucus-washed for 30 minutes 24h prior to treatment with compounds. The basolateral media was removed and replaced with media containing the compound of interest diluted to its final concentration from DMSO stocks. Treated cells were incubated at 37° C. and 5% CO2 for 24 hours. At the end of the treatment period, the media was changed to the Ieq experimental solution for 30 minutes before the experiment and plates are maintained in a CO2-free incubator during this period. The plates containing the cells were then placed in pre-warmed heating blocks at 36° C.±0.5 for 15 minutes before measurements are taken. The transepithelial voltage (VT) and conductance (GT) were measured using a custom 24 channel current clamp (TECC-24) with 24 well electrode manifold. The Ieq assay measurements were made following additions with standardized time periods: • 1. The baseline VT and GT values were measured for approximately 20 minutes. • 2. Benzamil was added to block ENaC for 15 minutes. • 3. Forskolin plus VX-770 (ivacaftor) were added to maximally activate ΔF508-CFTR for 27 minutes. • 4. Bumetanide was added to inhibit the NaK2Cl cotransporter and shut-off secretion of chloride.
The activity data captured was the area under the curve (AUC) for the traces of the equivalent chloride current. The AUC was collected from the time of the forskolin/VX-770 addition until the inhibition by bumetanide addition. Correction in response to compound treatment was scored as the increase in the AUC for compound-treated samples over that of vehicle-treated samples.
The results are shown below in Table 2. ++ indicates activity ≥25% run at 10 uM of VX-809 at 1 uM, + indicates activity 10 to <25% run at 10 uM of VX-809 at 1 uM, ** indicates activity ≥200% of VX-809 (1 uM) with compound at 10 uM and VX-809 at 1 uM; * indicates activity 100-200% of VX-809 (1 uM) with compound at 10 uM and VX-809 at 1 uM. ^## indicates activity ≥200% of VX-809 (3 uM) with compound at 10 uM and VX-809 at 3 uM; ^# indicates activity 100-200% of VX-809 (3 uM) with compound at 10 uM and VX-809 at 3 uM.

ΔF508-CFTR [2] = target: T1, ΔF508-CFTR; assay: Ussing measurements, hBEs homozygous for ΔF508; type: cell-based; conditions: compound at 10 uM and VX-809 at 3 uM, relative to VX-809 (3 uM); 24 h treatment
Experimental: As discussed above, Ussing measurements can be used to measure CFTR activity. In this example, primary lung epithelial cells (hBEs) homozygous for the Cystic Fibrosis-causing ΔF508 mutation were differentiated for a minimum of 4 weeks in an air-liquid interface on SnapWell filter plates prior to the Ussing measurements. Cells were apically mucus-washed for 30 minutes prior to treatment with compounds. The basolateral media was removed and replaced with media containing the compound of interest diluted to its final concentration from DMSO stocks. Treated cells were incubated at 37° C. and 5% CO2 for 24 hours. […] The short-circuit current was measured in voltage clamp-mode (Vhold=0 mV), and the entire assay was conducted at a temperature of 36° C.-36.5° C. Once the voltages stabilized, the chambers were clamped, and data was recorded by pulse readings every 5 seconds. Following baseline current stabilization, the following additions were applied and the changes in current and resistance of the cells was monitored: • 1. […]
The inhibitable current (that current that is blocked by CFTRinh-172) is measured as the specific activity of the ΔF508-CFTR channel, and increases in response to compound in this activity over that observed in vehicle-treated samples are identified as the correction of ΔF508-CFTR function imparted by the compound tested. […]

[3] = target: T2, CFTR in G542X/F508del HBEs (Homo sapiens, UniProt P13569, DEL508-508); assay: Ussing measurements, G542X/F508del HBEs; type: cell-based; conditions: genotype G542X/F508del
T2 construct: endogenous in cells; host or cells: primary lung epithelial cells (hBEs), genotype G542X/F508del
Experimental: As discussed above, Ussing measurements were used to measure CFTR activity. In this method, primary lung epithelial cells (hBEs) with a Cystic fibrosis causing class I mutation were differentiated for a minimum of 4 weeks in an air-liquid interface on SnapWell™ filter plates prior to the Ussing measurements. Cells were apically mucus-washed for 30 minutes prior to treatment with compounds. The basolateral media was removed and replaced with media containing the compound of interest diluted to its final concentration from DMSO or aqueous stocks. Treated cells were incubated at 37° C. and 5% CO2 for 24 hours. […] The short-circuit current was measured in voltage clamp-mode (Vhold=0 mV), and the entire assay was conducted at a temperature of 36° C.-36.5° C. Once the voltages stabilized, the chambers were clamped, and data were recorded by pulse readings every 5 seconds. Following baseline current stabilization, the following additions were applied and the changes in current and resistance of the cells were monitored: • 1. […]
The forskolin-sensitive current and inhibitable current (that potentiated current that was blocked by CFTRinh-172) were measured as the specific activity of the ΔF508-CFTR channel, and increase in response to compound in this activity over that observed in vehicle-treated samples were identified as the correction of ΔF508-CFTR function imparted by the compound tested. […]

[4] = tested on: CFTR, genotype 3849 + 10kb C > T/N1303K; assay: CFTR activity by mutation type, 3849 + 10kb C > T/N1303K (Table 7); type: cell-based, human

T2 sequence (P13569 with tags, fused parts or gaps DEL508-508): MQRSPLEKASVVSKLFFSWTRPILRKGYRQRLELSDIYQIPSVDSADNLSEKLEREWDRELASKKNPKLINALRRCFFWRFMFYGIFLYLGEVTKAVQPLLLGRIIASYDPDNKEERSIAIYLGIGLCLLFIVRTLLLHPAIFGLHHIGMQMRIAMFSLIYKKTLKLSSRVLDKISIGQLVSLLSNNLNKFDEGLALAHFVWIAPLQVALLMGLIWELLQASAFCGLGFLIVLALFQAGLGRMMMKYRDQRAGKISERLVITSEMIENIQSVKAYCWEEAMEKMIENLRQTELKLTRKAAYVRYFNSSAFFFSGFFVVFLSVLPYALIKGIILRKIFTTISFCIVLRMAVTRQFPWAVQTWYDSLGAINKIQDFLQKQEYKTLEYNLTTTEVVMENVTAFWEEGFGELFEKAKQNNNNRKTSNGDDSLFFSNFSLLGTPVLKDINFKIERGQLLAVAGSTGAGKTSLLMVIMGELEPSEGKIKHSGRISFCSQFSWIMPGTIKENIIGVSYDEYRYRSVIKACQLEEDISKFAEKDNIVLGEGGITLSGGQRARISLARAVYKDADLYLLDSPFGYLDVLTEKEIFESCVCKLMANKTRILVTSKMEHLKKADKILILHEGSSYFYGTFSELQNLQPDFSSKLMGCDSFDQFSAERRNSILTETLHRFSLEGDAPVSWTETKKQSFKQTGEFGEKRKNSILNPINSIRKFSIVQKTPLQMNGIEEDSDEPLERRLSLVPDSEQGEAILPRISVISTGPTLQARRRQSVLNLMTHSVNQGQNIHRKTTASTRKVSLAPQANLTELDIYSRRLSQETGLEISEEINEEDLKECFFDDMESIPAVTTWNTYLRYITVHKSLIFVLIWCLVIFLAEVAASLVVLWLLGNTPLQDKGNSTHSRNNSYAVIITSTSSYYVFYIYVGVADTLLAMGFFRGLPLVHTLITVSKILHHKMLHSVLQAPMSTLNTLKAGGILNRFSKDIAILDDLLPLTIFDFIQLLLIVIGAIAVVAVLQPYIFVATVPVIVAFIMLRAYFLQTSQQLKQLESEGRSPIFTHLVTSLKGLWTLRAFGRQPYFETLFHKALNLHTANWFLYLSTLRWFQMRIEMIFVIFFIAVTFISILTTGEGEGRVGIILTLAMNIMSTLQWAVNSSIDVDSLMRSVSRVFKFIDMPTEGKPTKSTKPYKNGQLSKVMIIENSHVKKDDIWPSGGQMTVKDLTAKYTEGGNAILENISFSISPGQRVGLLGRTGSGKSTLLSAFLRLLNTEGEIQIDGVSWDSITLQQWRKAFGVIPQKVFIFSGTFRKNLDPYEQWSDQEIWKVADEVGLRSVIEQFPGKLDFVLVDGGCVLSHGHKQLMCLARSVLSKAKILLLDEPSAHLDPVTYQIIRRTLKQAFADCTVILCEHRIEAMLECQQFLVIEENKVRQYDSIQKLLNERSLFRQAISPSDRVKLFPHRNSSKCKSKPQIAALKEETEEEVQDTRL
T1 sequence (P13569 with tags, fused parts or gaps DEL508-508): as above

In the case of C[C@@H](O)c1nnc([C@H]2C[C@H](NC(=O)c3cc(-c4ccccc4)no3)C2)o1 [Example 6, N-(trans-3-(5-((R)-1-hydroxyethyl)-1,3,4-oxadiazol-2-yl)cyclobutyl)-3-phenylisoxazole-5-carboxamide], the “leq: activity of compound with VX-809, % of VX-809 (AUC of equivalent chloride current)” value (ΔF508-CFTR [1]) is reported as “* (* indicates activity 100-200% of VX-809 (1 uM) with compound at 10 uM and VX-809 at 1 uM)”, the “Ussing: activity of compound with VX-809, % of VX-809” value (ΔF508-CFTR [2]) is reported as “## (## indicates activity ≥200% of VX-809 (3 uM) with compound at 10 uM and VX-809 at 3 uM)” and the “Combination with ivacaftor and lumacaftor, activity” value ([3]; compound A 10uM + ivacaftor 1uM + lumacaftor 3 uM, relative activity of 100% = ivacaftor and lumacaftor) is reported as “++++ (++++ indicates activity at 10uM of >150% of the indicated relative activity treatment)”. The “Stand Alone activity” value ([3]; compound A 10uM, relative activity of 100% = ivacaftor (1uM) and lumacaftor (3 uM)) was “+ (+ indicates activity at 10uM of 15% to <50% of the indicated relative activity treatment)”, the “Combination with ivacaftor, activity” value ([4]; compound A 10uM + ivacaftor 1uM, relative activity of 100% = ivacaftor) was “+++ (+++ indicates activity at 10uM of 100% to <150% of the indicated relative activity treatment)” and the “Stand Alone activity” value ([4]; compound A 10uM, relative activity of 100% = ivacaftor (1uM)) was “++ (++ indicates activity at 10uM of 50% to <100% of the indicated relative activity treatment)”.
